Values quoted from earlier work, collected in patent publication US4749649A, “Microbial Δ1-dehydrogenation process using a scavenger of toxic oxygen” (The Upjohn Company, priority 1983, dated 1988).

Key:
[1] = compared with hydrocortisone and cortisone
[2] = compared with hydrocortisone and cortisone; remark: listed apart in the source
steroid-1-dehydrogenase = conditions: Pseudomonas testosteroni; potential toxicity by superoxide and peroxide formation

Row | Compound | potency [1] | drug-induced salt retention [2] | 1-dehydrogenase activity in the presence of PMS (steroid-1-dehydrogenase)
1 | C[C@]12C=CC(=O)C=C1CC[C@@H]1[C@@H]2[C@@H](O)C[C@@]2(C)[C@H]1CC[C@]2(O)C(=O)CO [prednisolone] | enhanced potency | less drug-induced salt retention | 
2 | C[n+]1c2ccccc2nc2ccccc21 [PMS, phenazinemethosulfate] |  |  | essentially unaffected
3 | C[C@]12C=CC(=O)C=C1CC[C@@H]1[C@@H]2C(=O)C[C@@]2(C)[C@H]1CC[C@]2(O)C(=O)CO [prednisone] |  | less drug-induced salt retention | 
